What was measured:
Test in all cases: relative viability (nuclei count vs DMSO), 5 days (fraction); higher = more cells survive
[1] = compound: CC1=CN=C(N=C1C2=CNC(=C2)C(=O)N[C@H](CO)C3=CC(=CC=C3)Cl)NC4=C(C=C(C=C4)F)Cl [VX-11e] + NC(=O)Nc1cc(-c2cccc(F)c2)sc1C(=O)N[C@H]1CCCNC1 [AZD7762] (partner 0.2 µM)
In short: (§1)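 Dosing by pin tool came one day after lung cancer cell lines were seeded in 1536-well plates, using either one drug or a fixed anchor-drug dose plus five library-drug doses (not always all listed) in √10 steps. After 5 days, nuclei were counted on 4× images. Relative viability is treated-well nuclei count divided by vehicle-well nuclei count, and values are medians of duplicate plates.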

[2] = compound: CC1=CN=C(N=C1C2=CNC(=C2)C(=O)N[C@H](CO)C3=CC(=CC=C3)Cl)NC4=C(C=C(C=C4)F)Cl [VX-11e] + Nc1ncn([C@H]2C[C@H](O)[C@@H](CO)O2)c(=O)n1 [Decitabine] (partner 2 µM)
In short: as §1

[3] = compound: CC1=CN=C(N=C1C2=CNC(=C2)C(=O)N[C@H](CO)C3=CC(=CC=C3)Cl)NC4=C(C=C(C=C4)F)Cl [VX-11e] + CS(=O)(=O)CCNCc1ccc(-c2ccc3ncnc(Nc4ccc(OCc5cccc(F)c5)c(Cl)c4)c3c2)o1 [Lapatinib] (partner 2 µM)
In short: as §1

[4] = compound: CC1=CN=C(N=C1C2=CNC(=C2)C(=O)N[C@H](CO)C3=CC(=CC=C3)Cl)NC4=C(C=C(C=C4)F)Cl [VX-11e] + O=C(c1cc(Cc2n[nH]c(=O)c3ccccc23)ccc1F)N1CCN(C(=O)C2CC2)CC1 [Olaparib] (partner 8 µM)
In short: as §1

Row | Cell Line | relative viability ([1]; first compound 0.04 µM) | relative viability ([1]; first compound 0.1265 µM) | relative viability ([1]; first compound 0.4 µM) | relative viability ([1]; first compound 1.265 µM) | relative viability ([1]; first compound 4 µM) | relative viability ([2]; first compound 0.04 µM) | relative viability ([2]; first compound 0.1265 µM) | relative viability ([2]; first compound 0.4 µM) | relative viability ([2]; first compound 1.265 µM) | relative viability ([2]; first compound 4 µM) | relative viability ([3]; first compound 0.04 µM) | relative viability ([3]; first compound 0.1265 µM) | relative viability ([3]; first compound 0.4 µM) | relative viability ([3]; first compound 1.265 µM) | relative viability ([3]; first compound 4 µM) | relative viability ([4]; first compound 0.04 µM) | relative viability ([4]; first compound 0.1265 µM) | relative viability ([4]; first compound 0.4 µM) | relative viability ([4]; first compound 1.265 µM) | relative viability ([4]; first compound 4 µM)
1 | 201T | 0.592 | 0.586 | 0.562 | 0.626 | 0.74 | 0.868 | 0.84 | 0.831 | 0.831 | 0.758 | 0.948 | 0.988 | 0.943 | 0.816 | 0.942 | 0.846 | 0.809 | 0.832 | 0.792 | 0.773
2 | A-427 | 0.743 | 0.641 | 0.633 | 0.566 | 0.438 | 0.559 | 0.518 | 0.569 | 0.645 | 0.443 | 0.966 | 0.942 | 1.03 | 1.05 | 0.584 | 0.778 | 0.778 | 0.816 | 0.7 | 0.509
3 | ABC-1 | 0.988 | 0.785 | 0.711 | 0.779 | 0.572 | 1.11 | – | 0.992 | 1.06 | 0.977 | 1.03 | 1.06 | 0.899 | 1.22 | 1.53 | 1.22 | – | 0.667 | 0.771 | 0.926
4 | BEN | 0.481 | 0.635 | 0.823 | 0.634 | 0.567 | 0.505 | 0.645 | 0.712 | 0.573 | 0.654 | – | 0.637 | 0.888 | 0.45 | 0.728 | 1.04 | 0.935 | 1.11 | 0.904 | 0.994
5 | CAL-12T | 0.639 | 0.641 | 0.575 | 0.533 | 0.544 | – | – | – | – | – | – | – | 0.544 | 0.565 | 0.348 | 0.802 | 0.718 | 0.732 | 0.618 | 0.316
6 | COR-L23 | – | – | – | – | – | 0.374 | 0.417 | 0.396 | 0.426 | 0.276 | 1.3 | 1 | 0.806 | 0.634 | 0.398 | 0.445 | 0.463 | 0.486 | 0.491 | 0.207
7 | COR-L 105 | – | – | – | – | – | 0.685 | 0.701 | 0.712 | 0.705 | 0.333 | 0.354 | 0.324 | 0.396 | 0.355 | 0.381 | 0.666 | 0.694 | 0.708 | 0.839 | 0.396
8 | Calu-6 | – | – | – | – | – | – | – | – | – | – | 1.07 | 1.03 | 1.05 | 0.364 | 0.226 | 0.672 | 0.579 | 0.562 | 0.31 | 0.108
9 | ChaGo-K-1 | 0.889 | 0.801 | 0.796 | 0.896 | 0.767 | 0.534 | 0.495 | 0.511 | 0.51 | 0.5 | – | – | – | – | – | 0.451 | 0.473 | 0.416 | 0.43 | 0.378
10 | EBC-1 | – | – | – | – | – | – | – | – | – | – | 0.207 | 0.236 | 0.19 | 0.235 | 0.177 | 0.749 | 0.72 | 0.707 | 0.66 | 0.192

Reference: the supplement of paper PMC10307832
